Reference: patent US20210205329A1 (The University of North Carolina at Chapel Hill, priority 2018, published 2021)

Assays:
[1] = system: innately activated TLR4 signal in P rat VTA; assay: TLR4 signaling in P rat VTA after systemic neurosteroid (immunoblot, MCP-1 ELISA); assay type: in vivo; settings: 15 mg/kg IP, P rats
Procedure: Immunoblotting for whole VTA lysates was done as previously described (Carlson et al, 2013). Briefly, VTA micropunches (1 mm thick) were lysed with CelLytic MT (dialyzable mild detergent, bicine, and 150 mM NaCl; Sigma-Aldrich) and protease and phosphatase inhibitor cocktail according to the manufacturer's instructions. Total protein was determined by the BCA assay. The proteins (10 μg/lane) were resolved by NuPAGE™ 4-12% Bis-Tris Midi Protein Gel (Thermo Fisher, Waltham, Mass.) electrophoresis and transferred using the iBlot 2 Dry Blotting System (Thermo Fisher, Waltham, Mass.). Blots were then exposed to an antibody for β-actin for normalization. Proteins were detected with enhanced chemilumenescence (GE Healthcare, Amersham, UK). Membranes were exposed to film under non-saturating conditions. Densitometric analysis was conducted using NIH Image 1.57.
Animals. Selectively bred, but alcohol naïve Alcohol-preferring (P) rats (male, 3-4 months old; 250-550 g) (n=7-9/group) were obtained from the Alcohol Research Center, Indiana University School of Medicine, Animals were double housed in Plexiglas cages containing corn cob bedding and food and water was available ad libitum. The colony room was maintained on a normal 12 hr light-dark cycle (light onset at 0700 hr). Procedures followed National Institutes of Health Guidelines under UNC institutional Animal Care and Use Committee approved protocols at University of North Carolina School of Medicine. Rats were habituated to handling for 7 days prior to administration of 3α,5α-THP (15 mg/kg, IP), pregnenolone (75 mg/kg, IP), 3α,5α-THDOC (15 mg/kg, IP), or vehicle (45% w/v 2-hydroxypropyl-p-cyclodextrin) and returned to their home cage. Rats were sacrificed after 45 minutes and the brain was removed and frozen at −80° C. until VTA micropunches were collected from 1 mm cryostat brain sections. This time point was selected because 3α,5α-THP is rapidly metabolized in vivo (Purdy et al, 1990), but has behavioral and pharmacological activity at this time point (Crawley et al, 1986).
ELISA. Brain tissue micropunches were lysed with Cellyte MT and the extracts were assayed for protein content by the BCA procedure (Pierce) and for MCP-1 using the rat MCP-1 ELISA kit (Raybiotech—ERC-MCP-1-CL; Norcross, Ga., USA) or for fracktalkine using the rat fractalkine ELISA kit (Raybiotech—ERC-CX3CL1-CL; Norcross, Ga., USA) as per manufacturer's instructions.
Since the neurosteroids inhibited the TLR4 activation signal in cultured macrophage cells, experiments were conducted to determine whether this also occurs in the brain. Selectively bred P rats that have an innately activated TLR4 signal in the VTA (Liu J, et al. (2011). Proc Natl Acad Sci USA 108(11): 4465-4470), were administered 3α,5α-THP (15 mg/kg, IP) or pregnenolone (75 mg/kg, IP), sacrificed after 45 minutes and examined for TLR4 signaling using parallel measures. […] 3α,5α-THP administration reduced the levels of MCP-1 by 20±9% (p<0.05), TRAF6 by 19±3% (p<0.0001), and CRF by 28±9% (p<0.01), with no effect on TLR4 protein expression (FIG. 4A). Pregnenolone administration had no effect on TRAF6, CRF, or TLR4.

[2] = system: LPS-activated TLR4 signal; assay: LPS-activated TLR4 signaling in RAW264.7 cells (immunoblotting); assay type: cell-based, mouse
Procedure: Cells and reagents. Mouse monocyte macrophage ceils (RAW264.7) that innately express the TLR4 receptor were obtained from American Type Culture Collection (Manassas, Va., USA). The cells were grown in Dulbecco's modified Eagle's medium (DMEM) (Gibco; Gaithersburg, Md., USA) supplemented with 10% fetal bovine serum (FBS, Gemini, West Sacramento, Calif., USA), 1% penicillin/streptomycin 100× (Gibco) at 37° C. in a 5% CO2 humidified atmosphere. The TLR4-specific ligand IPS was purchased from Sigma-Aldrich (St. Louis, Mo., USA) (Cat. #L3024) and added to the cultures (1 μg/ml) 24 hrs before cell collection.
Immunoblotting. The assay used for RAW264.7 cell lysates and co-immunoprecipitation was as previously described (Aurelian et al, 2016; June et al, 2015; Liu et al, 2011). RAW246.7 cells grown on T-75 flasks (n=5 flasks/group) were lysed with radioimmunoprecipitation (RIPA) buffer [20 mM Tris-HCl (pH 7.4), […], 1% Nonidet P-40 (Sigma, St. Louis, Mo., USA), 0.1% SDS (sodium dodecyl sulfate), 0.5% sodium deoxycholate] supplemented with protease and phosphatase inhibitor cocktails (Sigma). The total protein was determined by the bicinchoninic acid assay (BCA, Thermo Fisher Scientific, Waltham, Mass., USA, Cat. #23228 and Cat. #1859078). The proteins (100 μg/lane) were resolved by SDS-polyacrylamide gel electrophoresis using freshly prepared 16×18 cm gels and transferred to polyvinylidene fluoride membranes (PVDF, Bio-Rad, Cat. #162-0177). Blots were blocked with 5% Blotting-Grade Blocker (Bio-Rad, Cat. #1706404; for non-phosphorylated primary antibodies) or 5% BSA (for phosphorylated primary antibodies) for 2 hrs at room temperature (RT) and exposed to primary antibody overnight (4° C.), followed by horseradish peroxidase-labeled secondary antibodies for 1 h (room temp), immunoreactive bands were visualized with the Plus-ECL kit reagents (Perkin Elmer, Waltham, Mass., USA, Cat. #NEL105001EA) followed by exposure to high-performance chemiluminescence film (Hyperfilm ECL; Amersham). Quantitation was by densitometric scanning with a Bio-Rad GS-700 imaging densitometer. Blots were stripped and re-probed with different primary antibodies 3-5 times. Each densitometric measurement was divided by the corresponding β-Actin densitometric measurement and the results [n=5/group] are expressed as the mean β-Actin-adjusted densitometric units±SEM.
To examine whether the neurosteroids inhibit the LPS-activated TLR4 signal, RAW264.7 cells were treated with IPS (1 μg/mi; 24 hrs) in the absence or presence of 3α,5α-THP (0.5 μM, 1 μM) or pregnenolone (0.5 μM, 1 μM), and ceil extracts were assayed for expression of MyD88-dependent pathway members, by immunoblotting with antibodies to pTAK1, monocyte chemotactic protein (MCP-1), TRAF6, TLR4, and transcription factor NFκB p50 (Chattopadhyay S, et al. (2014). Cytokine Growth Factor Rev 25(5): 533-541; Irie T, et al. (2000). FEBS Lett 467(2-3): […]; Lu Y C, et al. (2008). Cytokine 42(2): 145-151).
Because the neurosteroids had relatively little effect on NFκB p50, the possibility that inhibition of other transcription factors and proinflammatory responses may be involved was considered. RAW246.7 ceils were treated as described above and protein extracts were immunoblotted with antibodies to phospho-NF-κB p65, pCREB, the proinflammatory cytokine tumor necrosis factor alpha (TNFα), and high mobility group box-1 (HMGB1), a highly conserved non-histone chromosomal protein, the translocation of which from the intra- to extra-cellular environment is a critical event in inflammatory responses. Indeed, HMGB1 is currently recognized as a cytokine secreted from activated macrophages and other inflammatory cells during the innate immune response and if is believed to function as a TLR4 ligand. […]

[3] = system: TLR3 signal; assay: Poly(I:C)-activated TLR3 signaling in RAW264.7 cells; assay type: cell-based, mouse; settings: Poly-IC 25 μg/ml; 24 hrs; RAW264.7
[4] = system: TLR7 signal; assay: Imiquimod-activated TLR7 signaling in RAW264.7 cells; assay type: cell-based, mouse; settings: imiquimod 1 μg/ml for 24 hours, RAW264.7
Procedure: Because multiple TLRs signal through MD-2, […] and MyD-88, the specificity of the neurosteroid 3α,5α-THP on TLR2, TLRS and TLR7 signal activation was examined in RAW264.7 ceils (FIG. 7). Pam3Cys (10 μg/ml) activated TLR2 signaling, evidenced by increases in pCREB, pERK1/2, TRAF6 and pATF-2, that were sustained for 24 hrs and inhibited by 3α,5α-THP (1 μM) (50-60% compared to vehicle).

[5] = 0.5 μM or 1 μM (concentration not assigned), RAW264.7
[6] = 1.0 μM, LPS 1 μg/ml, 24 hrs, RAW264.7

C[C@]12CC[C@@H](O)C[C@@H]1CC[C@@H]1[C@@H]2CC[C@]2(C)[C@@H](C(=O)CO)CC[C@@H]12 [3α,5α-THDOC, (3α,5α)3,21-dihydroxypregnan-20-one]
effect on TLR4 protein expression in VTA ([1]; 45 minutes): No effect | increase of CRF levels in VTA [1]: 39±16% | increase of TRAF6 levels in VTA [1]: 32±12% | effect on MCP-1 expression in VTA ([1]; ELISA): no effect | inhibition of LPS-activated MCP-1 [2, 5]: approximately 90% | inhibition of LPS-activated NFκB p50 [2, 5]: 30-40% | effect on TLR4 expression ([2]; 0.5 μM or 1 μM, LPS-treated RAW264.7, 24 hrs): did not affect | enhancement of LPS-induced TRAF6 ([2]; 0.5 μM, LPS 1 μg/ml, 24 hrs, RAW264.7): 51.6±8.3% | enhancement of LPS-induced TRAF6 [2, 6]: 16.8±5.7% | increase of LPS-induced pTAK1 [2, 6]: 2 fold

Poly-IC
increase in IP-10 (CXCL10) expression [3]: 90%

CC(C)Cn1cnc2c(N)nc3ccccc3c21 [imiquimod]
increase in pIRF7 [4]: 30%
